Activity calls are given as the source filed them. No rule for the calls is given here.
Test system: CCRIS mutagenicity, Ames/micronucleus/aberration tests
Assay: CCRIS mutagenicity studies
[1] = Test System: AMES SALMONELLA TYPHIMURIUM, Strain/Indicator: TA98, Metabolic Activation: NONE, Method: PREINCUBATION
[2] = Test System: AMES SALMONELLA TYPHIMURIUM, Strain/Indicator: TA98, Metabolic Activation: NONE, Method: STANDARD PLATE
[3] = Test System: AMES SALMONELLA TYPHIMURIUM, Strain/Indicator: TA98, Metabolic Activation: RAT, LIVER, S-9, AROCLOR 1254, Method: STANDARD PLATE
[4] = Test System: AMES SALMONELLA TYPHIMURIUM, Strain/Indicator: TA100, Metabolic Activation: NONE, Method: PREINCUBATION
[5] = Test System: AMES SALMONELLA TYPHIMURIUM, Strain/Indicator: TA100, Metabolic Activation: NONE, Method: STANDARD PLATE
[6] = Test System: AMES SALMONELLA TYPHIMURIUM, Strain/Indicator: TA100, Metabolic Activation: RAT, LIVER, S-9, AROCLOR 1254, Method: STANDARD PLATE
[7] = Test System: AMES SALMONELLA TYPHIMURIUM, Strain/Indicator: TA1535, Metabolic Activation: NONE, Method: PREINCUBATION
[8] = Test System: AMES SALMONELLA TYPHIMURIUM, Strain/Indicator: TA1535, Metabolic Activation: NONE, Method: STANDARD PLATE
[9] = Test System: AMES SALMONELLA TYPHIMURIUM, Strain/Indicator: TA1537, Metabolic Activation: NONE, Method: PREINCUBATION
[10] = Test System: AMES SALMONELLA TYPHIMURIUM, Strain/Indicator: TA1537, Metabolic Activation: NONE, Method: STANDARD PLATE
[11] = Test System: AMES SALMONELLA TYPHIMURIUM, Strain/Indicator: TA1537, Metabolic Activation: RAT, LIVER, S-9, AROCLOR 1254, Method: STANDARD PLATE

Oc1c(Br)cc(Br)cc1Br
mutagenic call (Test System: AMES SALMONELLA TYPHIMURIUM, Strain/Indicator: TA98, Metabolic Activation: HAMSTER, LIVER, S-9, AROCLOR 1254 (10%), Method: PREINCUBATION): inactive; negative | mutagenic call (Test System: AMES SALMONELLA TYPHIMURIUM, Strain/Indicator: TA98, Metabolic Activation: HAMSTER, LIVER, S-9, AROCLOR 1254, Method: STANDARD PLATE): inactive; negative | mutagenic call [1]: inactive; negative | mutagenic call [2]: inactive; negative | mutagenic call (Test System: AMES SALMONELLA TYPHIMURIUM, Strain/Indicator: TA98, Metabolic Activation: RAT, LIVER, S-9, AROCLOR 1254 (10%), Method: PREINCUBATION): inactive; negative | mutagenic call [3]: inactive; negative | mutagenic call (Test System: AMES SALMONELLA TYPHIMURIUM, Strain/Indicator: TA100, Metabolic Activation: HAMSTER, LIVER, S-9, AROCLOR 1254 (10%), Method: PREINCUBATION): inactive; negative | mutagenic call (Test System: AMES SALMONELLA TYPHIMURIUM, Strain/Indicator: TA100, Metabolic Activation: HAMSTER, LIVER, S-9, AROCLOR 1254, Method: STANDARD PLATE): inactive; negative | mutagenic call [4]: inactive; negative | mutagenic call [5]: inactive; negative | mutagenic call (Test System: AMES SALMONELLA TYPHIMURIUM, Strain/Indicator: TA100, Metabolic Activation: RAT, LIVER, S-9, AROCLOR 1254 (10%), Method: PREINCUBATION): inactive; negative | mutagenic call [6]: inactive; negative | mutagenic call (Test System: AMES SALMONELLA TYPHIMURIUM, Strain/Indicator: TA1535, Metabolic Activation: HAMSTER, LIVER, S-9, AROCLOR 1254 (10%), Method: PREINCUBATION): inactive; negative | mutagenic call (Test System: AMES SALMONELLA TYPHIMURIUM, Strain/Indicator: TA1535, Metabolic Activation: HAMSTER, LIVER, S-9, AROCLOR 1254, Method: STANDARD PLATE): inactive; negative | mutagenic call [7]: inactive; negative | mutagenic call [8]: inactive; negative | mutagenic call (Test System: AMES SALMONELLA TYPHIMURIUM, Strain/Indicator: TA1535, Metabolic Activation: RAT, LIVER, S-9, AROCLOR 1254 (10%), Method: PREINCUBATION): inactive; negative | mutagenic call (Test System: AMES SALMONELLA TYPHIMURIUM, Strain/Indicator: TA1535, Metabolic Activation: RAT, LIVER, S-9, AROCLOR 1254, Method: STANDARD PLATE): inactive; negative | mutagenic call (Test System: AMES SALMONELLA TYPHIMURIUM, Strain/Indicator: TA1537, Metabolic Activation: HAMSTER, LIVER, S-9, AROCLOR 1254 (10%), Method: PREINCUBATION): inactive; negative | mutagenic call (Test System: AMES SALMONELLA TYPHIMURIUM, Strain/Indicator: TA1537, Metabolic Activation: HAMSTER, LIVER, S-9, AROCLOR 1254, Method: STANDARD PLATE): inactive; negative | mutagenic call [9]: inactive; negative | mutagenic call [10]: inactive; negative | mutagenic call (Test System: AMES SALMONELLA TYPHIMURIUM, Strain/Indicator: TA1537, Metabolic Activation: RAT, LIVER, S-9, AROCLOR 1254 (10%), Method: PREINCUBATION): inactive; negative | mutagenic call [11]: inactive; negative | mutagenic call (Test System: AMES SALMONELLA TYPHIMURIUM, Strain/Indicator: TA1538, Metabolic Activation: HAMSTER, LIVER, S-9, AROCLOR 1254, Method: STANDARD PLATE): inactive; negative | mutagenic call (Test System: AMES SALMONELLA TYPHIMURIUM, Strain/Indicator: TA1538, Metabolic Activation: NONE, Method: STANDARD PLATE): inactive; negative | mutagenic call (Test System: AMES SALMONELLA TYPHIMURIUM, Strain/Indicator: TA1538, Metabolic Activation: RAT, LIVER, S-9, AROCLOR 1254, Method: STANDARD PLATE): inactive; negative | mutagenic call (Test System: MOUSE LYMPHOMA, Strain/Indicator: L5178Y (TK+/TK-), Metabolic Activation: NONE, Method: SUSPENSION/PLATE): active; positive. reevaluation of results: positive | mutagenic call (Test System: MOUSE LYMPHOMA, Strain/Indicator: L5178Y (TK+/TK-), Metabolic Activation: RAT, LIVER, S-9, AROCLOR 1254, Method: SUSPENSION/PLATE): inactive; negative. reevaluation of results: negative | mutagenic call (Test System: Mouse lymphoma, Strain/Indicator: L5178Y (tk+/tk-), Metabolic Activation: None, Method: Suspension/plate): active; positive | mutagenic call (Test System: Mouse lymphoma, Strain/Indicator: L5178Y (tk+/tk-), Metabolic Activation: Rat, Liver, S-9, Aroclor 1254, Method: Suspension/plate): inactive; negative

Cc1c2ccccc2c(CBr)c2ccccc12
mutagenic call [2]: active; positive | mutagenic call [5]: inactive; negative

C1CCC(C2(C3CCCCC3)COCCOCCOCCOCCOCCOCCO2)CC1
mutagenic call [2]: inactive; negative | mutagenic call [3]: inactive; negative | mutagenic call [5]: inactive; negative | mutagenic call [6]: inactive; negative | mutagenic call (Test System: AMES SALMONELLA TYPHIMURIUM, Strain/Indicator: TA1530, Metabolic Activation: NONE, Method: STANDARD PLATE): inactive; negative | mutagenic call (Test System: AMES SALMONELLA TYPHIMURIUM, Strain/Indicator: TA1530, Metabolic Activation: RAT, LIVER, S-9, AROCLOR 1254, Method: STANDARD PLATE): inactive; negative | mutagenic call [10]: inactive; negative | mutagenic call [11]: inactive; negative

Oc1cc(O)c2ccccc2c1
mutagenic call [1]: active; positive | mutagenic call [4]: active; positive | mutagenic call (Test System: AMES SALMONELLA TYPHIMURIUM, Strain/Indicator: TA104, Metabolic Activation: NONE, Method: PREINCUBATION): active; positive | mutagenic call [7]: inactive; negative | mutagenic call [9]: inactive; negative | mutagenic call (Test System: AMES SALMONELLA TYPHIMURIUM, Strain/Indicator: TA1538, Metabolic Activation: NONE, Method: PREINCUBATION): inactive; negative | mutagenic call (Test System: AMES SALMONELLA TYPHIMURIUM, Strain/Indicator: TA2637, Metabolic Activation: NONE, Method: PREINCUBATION): active; positive | mutagenic call (Test System: AMES SALMONELLA TYPHIMURIUM, Strain/Indicator: TA2659, Metabolic Activation: NONE, Method: PREINCUBATION): inactive; negative

Cc1ccc(S(=O)(=O)OCc2ccccc2)cc1
mutagenic call [5]: inactive; negative

[2H]C([2H])([2H])N=NO
mutagenic call [8]: active; positive | mutagenic call (Test System: E. COLI, Strain/Indicator: WP2, Metabolic Activation: NONE, Method: STANDARD PLATE): active; positive | mutagenic call (Test System: E. COLI, Strain/Indicator: WP2 UVRA, Metabolic Activation: NONE, Method: STANDARD PLATE): active; positive

Reference: PubChem BioAssay AID1259407 (Chemical Carcinogenesis Research Information System (CCRIS), 2018)
